Reference: US10988523B2, “Modified lipidated Relaxin B chain peptides and their therapeutic use” (Sanofi, priority 2018, dated 2021)
*1 amine or outer side, *2 acyl side, *3 side chain or, on linkers, in order; H or OH if unused. Where a SMILES comes first, the peptide text is derived from it. Side-chain parts run from the residue outwards. [ ]: non-standard residue; d: D form. The star is where a group is joined. γGlu = O=C(O)[C@H](CCC(=O)[*:2])N[*:1]; Stearoyl = CCCCCCCCCCCCCCCCCC(=O)*; Palmitoyl = CCCCCCCCCCCCCCCC(=O)*; αMeK = C[C@](N)(CCCCN)C(=O)O; Nle = CCCC[C@H](N)C(=O)O; AEEA = NCCOCCOCC(=O)O; Aib = CC(C)(N)C(=O)O

Columns and labels:
RXFP1 = target: T1, RXFP1 (Homo sapiens, UniProt Q9HBX9); assay: OVCAR5 cAMP assay (HTRF), RXFP1 agonist activity; format: cell-based; conditions: for EC50: OVCAR5 cells, cAMP HTRF, read-out: EC50 (nM), OVCAR 5 cells (cAMP); for Emax: OVCAR-5, maximal cAMP relative to H2-relaxin maximum (100%), read-out: EMax, OVCAR 5 cells (cAMP)
T1 construct: OVCAR5 cells expressing endogenous RXFP1; endogenous in cells; host or cells: OVCAR5 cells
T1 sequence (Q9HBX9 1-757): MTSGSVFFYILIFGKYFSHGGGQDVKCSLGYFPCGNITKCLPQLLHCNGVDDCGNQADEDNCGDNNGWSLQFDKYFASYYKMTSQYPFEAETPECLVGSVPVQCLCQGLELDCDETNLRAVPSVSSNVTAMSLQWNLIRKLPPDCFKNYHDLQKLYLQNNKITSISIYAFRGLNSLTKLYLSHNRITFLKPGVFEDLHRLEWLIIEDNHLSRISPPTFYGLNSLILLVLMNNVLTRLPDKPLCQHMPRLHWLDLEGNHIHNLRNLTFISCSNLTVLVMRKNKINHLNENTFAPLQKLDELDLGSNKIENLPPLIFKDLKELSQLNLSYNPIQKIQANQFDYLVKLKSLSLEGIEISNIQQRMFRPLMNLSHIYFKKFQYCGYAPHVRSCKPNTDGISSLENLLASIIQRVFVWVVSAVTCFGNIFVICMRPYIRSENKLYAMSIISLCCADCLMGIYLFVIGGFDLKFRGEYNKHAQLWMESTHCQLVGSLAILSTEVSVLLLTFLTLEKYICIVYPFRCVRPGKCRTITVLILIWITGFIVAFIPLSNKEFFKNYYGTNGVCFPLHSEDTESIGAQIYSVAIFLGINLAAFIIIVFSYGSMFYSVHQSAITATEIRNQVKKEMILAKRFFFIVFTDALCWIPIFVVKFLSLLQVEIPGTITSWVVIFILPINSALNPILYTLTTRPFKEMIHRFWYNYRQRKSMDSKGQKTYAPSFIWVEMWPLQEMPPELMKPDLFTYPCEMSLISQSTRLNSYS
Method in brief: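 cAMP accumulation readout: after 1 mM IBMX for 40 min, endogenous-RXFP1 OVCAR5 cells got rising peptide concentrations without FCS, 30 min, 37° C, then lysis with HTRF cAMP reagents. Nonlinear regression gave EC50; Emax expressed relative to H2-relaxin maximum, same occasion.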

[1] = Pharmacokinetic (PK) determination after i.v. or s.c. administration to rats; format: in vivo, Sprague Dawley rats; conditions: Sprague Dawley, Rat PK; for C0 / half-life: iv, 1 mg/kg i.v.; for C0: extrapolated plasma concentration at t=0, read-out: C0; for half-life / Cmax / Tmax / bioavailability: plasma; for half-life: read-out: T½ (converted); for Cmax / Tmax: sc, 3 mg/kg s.c.; for bioavailability: subcutaneous, 3 mg/kg s.c. vs 1 mg/kg i.v., dose-corrected AUC ratio
Method in brief: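 Non-compartmental analysis of plasma LC/MS data (protein precipitation, BLQ taken as zero) gave T½, C0 (i.v.), Cmax/Tmax (s.c.) and F% from dose-corrected AUCs. Dosing: 3 mg/kg s.c. or 1 mg/kg i.v. in PBS to Sprague Dawley rats, purity- and salt-corrected.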

Compound | EC50 (RXFP1) [nM] | Emax (RXFP1) [%] | C0 [1] [µM] | half-life [1] [min] | Cmax [1] [nM] | Tmax [1] [h] | bioavailability [1] [%]
CCCCCCCCCCCCCCCCCC(=O)N[C@@H](CCC(=O)N[C@@H](CCC(=O)N[C@@H](CCC(=O)NCCOCCOCC(=O)NCCOCCOCC(=O)NCCOCCOCC(=O)NCCCC[C@H](NC(=O)[C@H](CCCCNC(C)=O)NC(=O)[C@H](CCCCN)NC(=O)[C@H](CCCNC(=N)N)NC(=O)C(C)(C)NC(=O)[C@H](CO)NC(=O)[C@H](Cc1ccccc1)NC(=O)[C@@H](NC(=O)[C@H](CO)NC(=O)[C@H](CCCC)NC(=O)CNC(=O)[C@H](CCC(=O)O)NC(=O)C(C)(C)NC(=O)C(C)(C)NC(=O)[C@@H](NC(=O)[C@H](CCCCNC(C)=O)NC(=O)[C@H](C)NC(=O)[C@H](CCCNC(=N)N)NC(=O)[C@@H](NC(=O)[C@H](CCCCN)NC(=O)[C@H](CCC(=O)O)NC(=O)[C@H](CCCNC(=N)N)NC(=O)CNC(=O)[C@H](CCC(=O)O)NC(=O)[C@H](CC(C)C)NC(C)=O)C(C)C)[C@@H](C)CC)[C@@H](C)O)C(N)=O)C(=O)O)C(=O)O)C(=O)O [compound 112] (Ac-LEGREKVRAK(Ac)I[Aib][Aib]EG[Nle]STFS[Aib]RKK(Ac)K([AEEA-AEEA-AEEA-γGlu-γGlu-γGlu-Stearoyl])-NH2) | 0.32 | 88 | 3.5 | 198 | 2200 | 8 | 63
CCCCCCCCCCCCCCCC(=O)N[C@@H](CCC(=O)N[C@@H](CCC(=O)N[C@@H](CCC(=O)N[C@@H](CCC(=O)NCCCC[C@H](NC(=O)COCCOCCNC(=O)COCCOCCNC(=O)COCCOCCNC(=O)COCCOCCNC(=O)[C@H](CCCCNC(C)=O)NC(=O)[C@H](CCCCN)NC(=O)[C@H](CCCNC(=N)N)NC(=O)[C@](C)(CCCCN)NC(=O)[C@H](CO)NC(=O)[C@H](Cc1c[nH]c2ccccc12)NC(=O)[C@@H](NC(=O)[C@H](CO)NC(=O)[C@H](CCCC)NC(=O)CNC(=O)[C@H](CCC(=O)O)NC(=O)C(C)(C)NC(=O)C(C)(C)NC(=O)[C@@H](NC(=O)[C@H](CCCCNC(C)=O)NC(=O)[C@H](C)NC(=O)[C@H](CCCNC(=N)N)NC(=O)[C@@H](NC(=O)[C@H](CCCCN)NC(=O)[C@H](CCC(=O)O)NC(=O)[C@H](CCCNC(=N)N)NC(=O)CNC(=O)[C@H](CCC(=O)O)NC(=O)[C@H](CC(C)C)NC(C)=O)C(C)C)[C@@H](C)CC)[C@@H](C)O)C(N)=O)C(=O)O)C(=O)O)C(=O)O)C(=O)O [compound 131] (Ac-LEGREKVRAK(Ac)I[Aib][Aib]EG[Nle]STWS[αMeK]RKK(Ac)[AEEA][AEEA][AEEA][AEEA]K([γGlu-γGlu-γGlu-γGlu-Palmitoyl])-NH2) | 0.26 | 92 | 2.5 | 378 | 1390 | 8 | 82
CCCCCCCCCCCCCCCC(=O)N[C@@H](CCC(=O)NCCCC[C@H](NC(=O)CC[C@H](NC(=O)CC[C@H](NC(=O)CC[C@H](NC(=O)COCCOCCNC(=O)COCCOCCNC(=O)COCCOCCNC(=O)COCCOCCNC(=O)[C@H](CCCCNC(C)=O)NC(=O)[C@H](CCCCN)NC(=O)[C@H](CCCNC(=N)N)NC(=O)[C@](C)(CCCCN)NC(=O)[C@H](CO)NC(=O)[C@H](Cc1c[nH]c2ccccc12)NC(=O)[C@@H](NC(=O)[C@H](CO)NC(=O)[C@H](CCCC)NC(=O)CNC(=O)[C@H](CCC(=O)O)NC(=O)C(C)(C)NC(=O)C(C)(C)NC(=O)[C@@H](NC(=O)[C@H](CCCCNC(C)=O)NC(=O)[C@H](C)NC(=O)[C@H](CCCNC(=N)N)NC(=O)[C@@H](NC(=O)[C@H](CCCCN)NC(=O)[C@H](CCC(=O)O)NC(=O)[C@H](CCCNC(=N)N)NC(=O)CNC(=O)[C@H](CCC(=O)O)NC(=O)[C@H](CC(C)C)NC(C)=O)C(C)C)[C@@H](C)CC)[C@@H](C)O)C(=O)O)C(=O)O)C(=O)O)C(N)=O)C(=O)O [compound 136] (Ac-LEGREKVRAK(Ac)I[Aib][Aib]EG[Nle]STWS[αMeK]RKK(Ac)[AEEA][AEEA][AEEA][AEEA][γGlu][γGlu][γGlu]K([γGlu-Palmitoyl])-NH2) | 0.03 | 92 | 3 | 174 | 1870 | 8 | 86
CCCCCCCCCCCCCCCC(=O)N[C@@H](CCC(=O)NCCCC[C@H](NC(=O)CC[C@H](NC(=O)CC[C@H](NC(=O)CC[C@H](NC(=O)COCCOCCNC(=O)COCCOCCNC(=O)COCCOCCNC(=O)COCCOCCNC(=O)[C@H](CCCCNC(C)=O)NC(=O)[C@H](CCCCN)NC(=O)[C@H](CCCNC(=N)N)NC(=O)[C@](C)(CCCCN)NC(=O)[C@H](CO)NC(=O)[C@H](Cc1ccccc1)NC(=O)[C@@H](NC(=O)[C@H](CO)NC(=O)[C@H](CCCC)NC(=O)CNC(=O)[C@H](CCC(=O)O)NC(=O)C(C)(C)NC(=O)C(C)(C)NC(=O)[C@@H](NC(=O)[C@H](CCCCNC(C)=O)NC(=O)[C@H](C)NC(=O)[C@H](CCCNC(=N)N)NC(=O)[C@@H](NC(=O)[C@H](CCCCN)NC(=O)[C@H](CCC(=O)O)NC(=O)[C@H](CCCNC(=N)N)NC(=O)CNC(=O)[C@H](CCC(=O)O)NC(=O)[C@H](CC(C)C)NC(C)=O)C(C)C)[C@@H](C)CC)[C@@H](C)O)C(=O)O)C(=O)O)C(=O)O)C(N)=O)C(=O)O [compound 145] (Ac-LEGREKVRAK(Ac)I[Aib][Aib]EG[Nle]STFS[αMeK]RKK(Ac)[AEEA][AEEA][AEEA][AEEA][γGlu][γGlu][γGlu]K([γGlu-Palmitoyl])-NH2) | 0.4 | 99 | 3.44 | 324 | 1670 | 8 | 70
CCCCCCCCCCCCCCCC(=O)N[C@@H](CCC(=O)NCCCC[C@H](NC(=O)CC[C@H](NC(=O)CC[C@H](NC(=O)CC[C@H](NC(=O)COCCOCCNC(=O)COCCOCCNC(=O)COCCOCCNC(=O)COCCOCCNC(=O)[C@H](CCCCNC(C)=O)NC(=O)[C@H](C)NC(=O)[C@H](CCCNC(=N)N)NC(=O)[C@](C)(CCCCN)NC(=O)[C@H](CO)NC(=O)[C@H](Cc1ccccc1)NC(=O)[C@@H](NC(=O)[C@H](CO)NC(=O)[C@H](CCCC)NC(=O)CNC(=O)[C@H](CCC(=O)O)NC(=O)C(C)(C)NC(=O)C(C)(C)NC(=O)[C@@H](NC(=O)[C@H](CCCCNC(C)=O)NC(=O)[C@H](C)NC(=O)[C@H](CCCNC(=N)N)NC(=O)[C@@H](NC(=O)[C@H](CCCCN)NC(=O)[C@H](CCC(=O)O)NC(=O)[C@H](CCCNC(=N)N)NC(=O)CNC(=O)[C@H](CCC(=O)O)NC(=O)[C@H](CC(C)C)NC(C)=O)C(C)C)[C@@H](C)CC)[C@@H](C)O)C(=O)O)C(=O)O)C(=O)O)C(N)=O)C(=O)O [compound 149] (Ac-LEGREKVRAK(Ac)I[Aib][Aib]EG[Nle]STFS[αMeK]RAK(Ac)[AEEA][AEEA][AEEA][AEEA][γGlu][γGlu][γGlu]K([γGlu-Palmitoyl])-NH2) | 0.11 | 87 | 3.33 | 260 | 2500 | 6 | 128
